Results published in patent US12077586B2, “Bispecific antibodies for use in the treatment of hematological malignancies” (LAVA THERAPEUTICS N.V., priority 2018, dated 2024).

Assays:
[1] = tested on: autologous CLL cells; assay: Cytotoxicity assay with patient-derived Vγ9Vδ2-T cells against autologous CLL cells; format: cell-based, human; conditions: 10 nM; CD3:PBMC 5:1 or 20:1
From the text: (§1) (A-C) Activation of and cytokine production and degranulation by patient-derived Vγ9Vδ2-T cells. […] (D) Lysis of primary CLL cells by autologous Vγ9Vδ2-T cells. […] Live CLL cells were quantified by flow cytometry using counting beads (n=5). (E) Expansion of patient-derived Vγ9Vδ2-T cells. […] Percentage Vγ9Vδ2-T cells after 1 week (n=8). Data are presented as mean and SD. *P<0.05, **P<0.01, ***P<0.001. (A-D: one-way ANOVA followed by Dunnett's post hoc test compared to medium control; E: paired t-test).
For cytotoxicity assays performed with patient-derived Vγ9Vδ2-T cells, CD3^+ cells were enriched from patient PBMC by magnetic bead selection (130-050-101, Miltenyi Biotec; ≥90% purity). […] Viable cells were then quantified by fluorescence-labeled antibodies and viability dyes in combination with counting beads (01-1234-42, Thermo Fisher Scientific).

[2] = tested on: CLL patient-derived Vγ9Vδ2-T cells; assay: Proliferation assay of CLL patient-derived Vγ9Vδ2-T cells; format: cell-based, human; conditions: 1 week
From the text: as §1
For proliferation assays, PBMCs from CL patients were enriched for T cells by depletion of CD19^+ CLL cells. After attachment of irradiated (30Gy) […] fibroblasts to culture plates, T cell enriched PBMC (≤10% CD19^+) and purified CD19^+ (≥90% CD19^+) PBMC fractions were added in a 2:1 (CD19:CD19^+) ratio.

[3] = tested on: CD1d-transfected MM.1s cells; assay: Cytotoxicity assay with Vγ9Vδ2-T cell lines, CD1d-transfected MM.1s; format: cell-based, human; conditions: overnight coculture with Vγ9Vδ2-T cells
Experimental: (§2) (A) Specific lysis of Jeko-1 cell line (n=3). (B) CD1d expression on WT or CD1d-transfected MM.1s cell line (blank histogram: CD1d-stained, grey filled histogram: fluorescence minus one control). (C) Specific lysis of WT or CD1d-transfected MM.1s cell line (n=4). (D) Specific lysis of primary CLL cells with negative, low or high CD1d expression (n=4 per group). Specific lysis is calculated by correcting for background cell death in condition without Vγ9Vδ2-T cells. Data represent mean and SD. *P<0.05, **P<0.01, ****P<0.0001. (A: one-way ANOVA followed by Dunnett's post hoc test compared to untreated condition, C: two-way ANOVA followed by Sidak's post hoc test comparing WT vs CD1d for each concentration, D: two-way ANOVA followed by Tukey's post hoc test comparing each CD1d group for each concentration).
(§3) Target cells were then cocultured overnight with Vγ9Vδ2-T cell lines in a 1:1 ratio unless otherwise indicated. Viability was measured using Mitotracker Orange (25-minute incubation at 37° C., M7510) and To-pro-3 (10-minute incubation at room temperature; T3605, both Thermo Fisher Scientific).

[4] = tested on: Vγ9Vδ2-T cells; assay: Cytokine and degranulation assay, Vγ9Vδ2-T cells cocultured with Jeko-1 cells; format: cell-based, human; conditions: bispecific antibody alone, without target cells
[5] = tested on: wildtype CD1d-negative MM.1s cells; assay: Cytotoxicity assay with Vγ9Vδ2-T cell lines, wildtype MM.1s; format: cell-based, human; conditions: overnight coculture with Vγ9Vδ2-T cells
Experimental: as §2, §3

[6] = tested on: Jeko-1 cells; assay: Cytotoxicity assay with Vγ9Vδ2-T cell lines, Jeko-1 target cells; format: cell-based, human
Experimental: as §3
(§4) If indicated, target cells were pretreated with 25 μM mevastatin (M2537, Sigma-Aldrich), 50 μM aminobisphosphonates (pamidronate, #12J08RD, TEVA Pharmachemie, Haarlem, the Netherlands) or medium control for 2 hours.
(§5) If indicated, cells were cultured with the indicated concentrations of all-trans retinoic acid (ATRA; R2625, Sigma-Aldrich) for 48 hours unless otherwise indicated. ATRA was washed away prior to cytotoxicity assays.
If indicated, target cells were pre-incubated with 5 μg/mL anti-CD1d mAb (clone 51.1, 350304, Biolegend, San Diego, CA, USA) and/or 10 μg/mL anti-CD277 mAb (clone 103.2, Creative Biolabs, Shirley, NY, USA) for 10 minutes.

[7] = tested on: healthy B cells; assay: Mixed coculture cytotoxicity (Vγ9Vδ2-T cell: B cell: CLL cell 1:1:1), healthy B cells; format: cell-based, human; conditions: 6 hours
Experimental: (§6) (A) Specific lysis of Jeko-1 cells after pretreatment with mevastatin or pamidronate. […] (B) CD1d expression on B cells from healthy donor PBMCs. (C) Specific lysis of healthy B cells and CLL cells after pretreatment with ABP. Healthy B cells (isolated from healthy donor PBMCs, CFSE-labeled) and CLL cells (isolated from CLL PBMCs, CTV-labeled) were mixed in 1:1 ratio and pretreated with 50 μM pamidronate or medium control for 2 hours. […] (D) Specific lysis of Jeko-1 cells after blockade of CD1d or CD277. Jeko-1 cells were incubated with an anti-CD1d antibody (5 μg/mL), anti-CD277 antibody (10 μg/mL), anti-CD1d and anti-CD277 antibodies, or medium control for 10 minutes. […] Specific lysis is calculated by correcting for background cell death in condition without Vγ9Vδ2-T cells. Data represent mean and SD. *P<0.05, **P<0.01, ***P<0.001. (A: two-way ANOVA followed by Dunnett's post hoc test comparing control vs each pretreatment; C: two-way ANOVA followed by Sidak's post hoc test comparing untreated vs ABP pre-treated D: one-way ANOVA followed by Dunnett's post hoc test compared to medium control).
as §4
(§7) Healthy B cells express low levels of CD1d (FIG. 12B). […]

[8] = tested on: CD1d-transfected MM.1s cells; assay: VHH binding to CD1d-transfected MM.1s cells (flow cytometry); parameters: species or system human; conditions: read-out: apparent Kd
[9] = tested on: primary CLL cells; assay: Cytotoxicity assay with Vγ9Vδ2-T cell lines, primary CLL cells; format: cell-based
Experimental: as §2, §3, §5

[10] = tested on: CLL patient-derived Vγ9Vδ2-T cells; assay: Activation, cytokine and degranulation assay with autologous CLL patient-derived Vγ9Vδ2-T cells; format: cell-based, human
From the text: as §1

[11] = tested on: CLL cells; assay: Mixed coculture cytotoxicity (Vγ9Vδ2-T cell: B cell: CLL cell 1:1:1), CLL cells; format: cell-based, human; conditions: 6 hours
Experimental: as §6, §4, §7

[12] = tested on: CD1d expression on primary CLL cells; assay: CD1d expression on primary CLL cells after ATRA treatment; format: cell-based, human; conditions: for Increase of CD1d levels: primary CLL cells, 48 hours
Experimental: (§8) (A) CD1d expression on Jeko-1 cells after 48 hours of ATRA treatment. (B) Time-curve of CD1d expression upon ATRA treatment (n=3). (C) Viability of Jeko-1 cells after 48 hours of treatment with 100 nM ATRA (n=4). (D) Lysis of Jeko-1 cells after pretreatment with ATRA. […] (E) CD1d expression on primary CLL cells after 48 hours of different concentrations of ATRA or medium control treatment (n=17). (F) Lysis of CLL cells after pretreatment with ATRA. […] Specific lysis is calculated by correcting for background cell death in condition without Vγ9Vδ2-T cells. Data represent mean and SD. *P<0.05, ***P<0.001, ****P<0.0001. (C: paired t-test; D, F: two-way ANOVA followed by Sidak's post hoc test comparing control vs ATRA-treated for each concentration; E: Friedman test followed by Dunnett's post hoc test compared to medium control).
(§9) Cells were stained with antibodies and viability dyes (Table 4) and measured on an LSR Fortessa or FACS Canto cytometer (BD Biosciences, Franklin Lakes, NJ, USA). Samples were analyzed with Flowjo MacV10. Cytofix/Cytoperm reagent was used for detection of intracellular cytokines (BD Biosciences). Relative CD1d expression is defined as geometric MFI (CD1d stained)—geometric MFI (fluorescence minus one).
as §5

[13] = tested on: Jeko-1 cells; assay: Viability of Jeko-1 cells after ATRA treatment; format: cell-based, human; conditions: 100 nM ATRA, 48 hours
Experimental: as §8, §5

[14] = tested on: CD1d expression on Jeko-1 cells; assay: CD1d expression on Jeko-1 cells after ATRA treatment; format: cell-based, human; conditions: 48 hours
Experimental: as §8, §9
If indicated, cells were cultured with the indicated concentrations of all-trans retinoic acid (ATRA; R2625, Sigma-Aldrich) for 48 hours unless otherwise indicated. […]

[15] = molecular target: T1, Vγ9 chain (Homo sapiens, UniProt Q99603, T7A); conditions: Mean Fluorescence Index class; γδ T-cells expressing Vγ9 chain paired with non Vδ2 chain; cited from earlier work
T1 construct: host or cells: γδ T-cells expressing a Vγ9 chain paired with a non-Vδ2 chain
T1 sequence (Q99603 with tags, fused parts or gaps T7A limits assumed): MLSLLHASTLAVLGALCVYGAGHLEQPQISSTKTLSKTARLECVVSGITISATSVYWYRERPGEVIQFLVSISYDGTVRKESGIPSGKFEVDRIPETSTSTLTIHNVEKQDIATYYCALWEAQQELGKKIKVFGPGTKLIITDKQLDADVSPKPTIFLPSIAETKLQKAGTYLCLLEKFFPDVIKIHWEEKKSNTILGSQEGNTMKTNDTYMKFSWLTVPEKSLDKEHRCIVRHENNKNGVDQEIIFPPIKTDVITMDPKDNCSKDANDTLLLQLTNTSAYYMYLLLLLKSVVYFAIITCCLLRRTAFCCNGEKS
T1 sequence (P07766 23-207 partner): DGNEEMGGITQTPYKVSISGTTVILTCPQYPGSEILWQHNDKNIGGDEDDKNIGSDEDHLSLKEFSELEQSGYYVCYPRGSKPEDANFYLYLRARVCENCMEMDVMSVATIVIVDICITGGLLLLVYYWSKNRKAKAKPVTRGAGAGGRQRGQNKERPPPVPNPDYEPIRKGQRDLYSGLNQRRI
T1 sequence (P09693 23-182 partner): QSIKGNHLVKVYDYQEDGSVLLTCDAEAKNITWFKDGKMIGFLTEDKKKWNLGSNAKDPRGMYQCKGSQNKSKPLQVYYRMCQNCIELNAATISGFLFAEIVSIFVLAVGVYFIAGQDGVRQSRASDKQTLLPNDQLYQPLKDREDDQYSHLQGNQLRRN
T1 sequence (P04234 22-171 partner): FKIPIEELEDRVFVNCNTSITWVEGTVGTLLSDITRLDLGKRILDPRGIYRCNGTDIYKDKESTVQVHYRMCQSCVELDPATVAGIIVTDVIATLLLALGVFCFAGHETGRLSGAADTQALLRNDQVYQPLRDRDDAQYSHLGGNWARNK
T1 sequence (P20963 22-164 partner): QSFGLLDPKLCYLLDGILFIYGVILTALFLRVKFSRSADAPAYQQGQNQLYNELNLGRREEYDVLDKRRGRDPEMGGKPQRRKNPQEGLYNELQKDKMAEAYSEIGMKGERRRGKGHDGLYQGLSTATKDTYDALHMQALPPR

[16] = molecular target: T2, Vδ2 chain (Homo sapiens, UniProt A0JD36); conditions: Mean Fluorescence Index class; γδ T-cells expressing Vδ2 chain paired with non Vγ9 chain; cited from earlier work
T2 construct: host or cells: γδ T-cells expressing a Vδ2 chain paired with a non-Vγ9 chain
T2 sequence (A0JD36 with tags, fused parts or gaps): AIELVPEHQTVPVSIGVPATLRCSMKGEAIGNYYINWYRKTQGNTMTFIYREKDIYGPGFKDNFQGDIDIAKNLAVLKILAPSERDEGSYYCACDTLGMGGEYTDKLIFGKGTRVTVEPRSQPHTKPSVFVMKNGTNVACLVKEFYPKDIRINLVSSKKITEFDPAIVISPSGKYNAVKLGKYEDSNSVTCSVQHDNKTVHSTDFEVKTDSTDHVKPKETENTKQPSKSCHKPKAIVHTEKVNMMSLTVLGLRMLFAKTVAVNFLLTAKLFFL
T2 sequence (P07766 23-207 partner): as the sequence (P07766 23-207 partner) above
T2 sequence (P09693 23-182 partner): as the sequence (P09693 23-182 partner) above
T2 sequence (P04234 22-171 partner): as the sequence (P04234 22-171 partner) above
T2 sequence (P20963 22-164 partner): as the sequence (P20963 22-164 partner) above

[17] = tested on: Vγ9Vδ2-T cells; conditions: previous work; cited from earlier work
[18] = molecular target: T3, complete Vγ9Vδ2 TCR (Homo sapiens, UniProt A0JD36+Q99603, T7A); conditions: Mean Fluorescence Index class; cited from earlier work
T3 construct: host or cells: γδ T-cells expressing the complete Vγ9Vδ2 TCR
T3 sequence (Q99603 with tags, fused parts or gaps T7A limits assumed): as the sequence (Q99603 with tags, fused parts or gaps T7A limits assumed) above
T3 sequence (A0JD36 with tags, fused parts or gaps, stated change not applied): as the sequence (A0JD36 with tags, fused parts or gaps) above
T3 sequence (P07766 23-207 partner): as the sequence (P07766 23-207 partner) above
T3 sequence (P09693 23-182 partner): as the sequence (P09693 23-182 partner) above
T3 sequence (P04234 22-171 partner): as the sequence (P04234 22-171 partner) above
T3 sequence (P20963 22-164 partner): as the sequence (P20963 22-164 partner) above

[19] = tested on: γδ T-cells not expressing any of the Vγ9Vδ2 TCR chains; conditions: Mean Fluorescence Index class; cells not expressing any Vγ9Vδ2 TCR chain; cited from earlier work
[20] = 10 pM 1D7-5C8, with ABP (50 μM pamidronate pretreatment)
[21] = 100 nM, overnight coculture with Vγ9Vδ2-T cells 1:1

1D7-5C8: CD1d-Vδ2 bispecific VHH: 1D7 (N-terminal) joined to 5C8 (C-terminal) with Gly4Ser-linker, SEQ ID NO: 165
Lysis of autologous CLL cells by patient-derived Vγ9Vδ2-T cells [1]: enables autologous tumor lysis at relatively low E:T ratios
Percentage of Vγ9Vδ2-T cells within the T cell fraction ([2]; IL-2 50 IU/mL and 50 nM 1D7-5C8, baseline 1.2%): 5.6%±4.7
Percentage of Vγ9Vδ2-T cells with versus without antibody ([2]; IL-2 50 IU/mL, 50 nM 1D7-5C8): 3.1 fold
Lysis of CD1d+ MM.1s cells [3]: clearly increased lysis
IFN-γ production and degranulation of Vγ9Vδ2-T cells [4]: did not produce IFN-γ and hardly degranulated
Lysis of wildtype MM.1s cells [5]: had no effect on lysis of the wildtype cells
Lysis of Jeko-1 cells ([6]; 10 pM 1D7-5C8 with CD1d-blocking antibody (5 μg/mL)): 13.7%±1.0
Lysis of Jeko-1 cells ([6]; 10 pM 1D7-5C8 with CD1d and CD277 simultaneously blocked): 9.4%±0.8
Lysis of Jeko-1 cells ([6]; 10 nM, overnight coculture with Vγ9Vδ2-T cells 1:1): 75.2%±21.0
Decline of 1D7-5C8-induced lysis ([6]; CD1d and CD277 simultaneously blocked): 20.2%
Target cell lysis ([6]; in the absence of Vγ9Vδ2-T cells): did not induce target cell lysis
Decrease of 1D7-5C8-induced lysis ([6]; with CD1d-blocking antibody, on average): 15.9%
Lysis of healthy B cells ([7]; 10 pM 1D7-5C8, no ABP): 4.8%±0.6
Lysis of healthy B cells [7, 20]: 5.4%±4.5
Kd [8]: 0.4 nM
Lysis of CD1d high CLL cells [9, 21]: 74.5%±19.1
Lysis of CD1d low CLL cells [9, 21]: 49.3%±6.6
Upregulation of activation marker CD25 on patient Vγ9Vδ2-T cells ([10]; overnight culture of CLL PBMC, 1D7-5C8 50 nM): 20.8 fold
Cytokine production by patient-derived Vγ9Vδ2-T cells ([10]; overnight, 50 nM): induced production of IFN-γ and TNF-α
Degranulation of patient-derived Vγ9Vδ2-T cells ([10]; overnight, 50 nM): triggered Vγ9Vδ2-T cell degranulation
Lysis of CLL cells ([11]; 10 pM 1D7-5C8, no ABP): 19.6%±4.8
Lysis of CLL cells [11, 20]: 25.1%±5.2

CC1=C(/C=C/C(C)=C/C=C/C(C)=C/C(=O)O)C(C)(C)CCC1 [ATRA, all-trans retinoic acid]
CD1d relative MFI ([12]; primary CLL cells after 100 nM ATRA): 504.6±366.0
Increase of CD1d levels ([12]; 1 nM ATRA): 2.6 fold
Increase of CD1d levels ([12]; 100 nM ATRA, on average): 3.7 fold
Direct induction of cell death [13]: did not induce cell death directly
Sensitivity of ATRA-pretreated Jeko-1 cells to 1D7-5C8-induced cell death ([6]; 100 nM ATRA 48 hours, then Vγ9Vδ2-T cells 1:2 plus 1D7-5C8): more sensitive to bispecific antibody 1D7-5C8-induced cell death than control Jeko-1 cells
Sensitivity of ATRA-pretreated primary CLL cells to 1D7-5C8-mediated cell death ([9]; 100 nM ATRA 48 hours, then Vγ9Vδ2-T cells 1:1 plus 1D7-5C8): did sensitize primary CLL cells to bispecific antibody 1D7-5C8-mediated cell death
ATRA concentration at which upregulation of CD1d expression was detectable [14]: 10 pM

B1: 5C8: Vγ9Vδ2-specific VHH binding to the Vδ2 chain of the TCR, SEQ ID NO: 149 (protein)
VHH: EVQLVESGGGLVQAGGSLRLSCAASGRPFSNYAMGWFRQAPGKEREFVAAISWSGGSTSYADSVKGRFTISRDNAKNTVYLQMNSPKPEDTAIYYCAAQFSGADYGFGRLGIRGYEYDYWGQGTQVTVSS
modifications: antibody sequence
Binding, Vγ9+ [15]: − (“−” indicates a Mean Fluorescence Index (MFI) below 1.5)
Binding, Vδ2+ [16]: ++ (“++” indicates an MFI above 20)
Inhibition of phosphoantigen-CD277 mediated Vγ9Vδ2-T cell activation [17]: not effective in inhibiting phosphoantigen-CD277 mediated Vγ9Vδ2-T cell activation
Binding, Vγ9Vδ2+ [18]: ++ (“++” indicates an MFI above 20)
Binding, Vγ9Vδ2− [19]: − (“−” indicates a Mean Fluorescence Index (MFI) below 1.5)
